The test system of assay [1] is IFN-γ. Kind of assay: IFN-γ release by splenocyte (CTL) cultures, ELISA. Format: cell-based, mice. The procedure: After at least 7 and not more than 10 days, immunised animals were killed, and the spleens recovered into transport media. Spleens were gently macerated and flushed by injecting 10 ml “CTL culture media” (RPMI 1640, 1% L-glutamine, 10% FCS (PAA labs), 20 mM Hepes, 50 μM 2-mercaptoethanol, 50 U/ml penicillin, 500 U/ml streptomycin and 0.25 μg/ml fungizone) under pressure through a fine bore hypodermic needle introduced through the spleen capsule, thus facilitating the isolation of splenocytes. The remaining tissue was diced and digested for 1 hour at 37° C. using an enzyme cocktail (IMDM containing […] 2-ME, 100 U/ml penicillin+1000 U/ml streptomycin, 8 mg/ml collagenase and 1% DNAse). The flushed and digested cell populations were washed and pooled, and then seeded into 15 wells of a 24 well-plate at 5×10^6 cells/well in 2 ml of media containing 20 μg peptide. The test peptide was added to 12 wells, while 3 wells received an irrelevant class-I peptide as a control. Splenocyte cultures were incubated for 5 days at 37° C.
Aliquots of supernatants were removed from CTL cultures on days 1 and 5 and on days 2 and 5 from CD4′ T cell cultures and stored at −20° C. until required. ELISA was used to quantitate concentrations of murine IFN-γ and IL-5 (R&D systems, UK).
Figures represent the ratio of IFN-γ released by splenocytes stimulated in vitro by PAP.135 to IFN-γ released by splenocytes stimulated in vitro by an irrelevant HLA-A2*0201 CTL epitope. The mean results of 10 experiments using splenocytes derived from PAP.135-immunised mice are given, and 1 in which splenocytes derived from non-immunised (naive mice) were used.
(An ELISA detects its analyte on a solid surface through an enzyme-linked reagent.)

Assay [2] has as its system LNCaP cells. Kind of assay: 51Chromium cytotoxicity assay of splenocytes from PAP.135 immunised mice against LNCaP cells. Format: cell-based, human. Conditions: LNCaP express HLA-A2 and PAP. The protocol:
(c): Cytotoxicity against LNCaP cells by splenocytes derived from PAP.135 immunised mice. Results are representative of 10 mice and 2 individual experiments.
(§1) LNCaP is a human prostate cancer cell-line known to express HLA-A2 and PAP. Cells were propagated in RPMI 1640 media (GibcoBRL, UK) supplemented with 10% foetal calf serum (BioWhittaker, Belgium), 100 U/ml penicillin with 100 μg/ml streptomycin (GibcoBRL, UK), 5 ng/ml hydrocortisone and 5 ng/ml testosterone (Sigma, USA). […] Cells were grown in suspension in tissue culture flasks containing RPMI 1640 (GibcoBRL, UK) with 10% foetal calf serum (FCS) (BioWhittaker, Belgium) and 1% L-glutamine supplement (GibcoBRL, UK).
Target cells were pulsed overnight with test peptide or an irrelevant HLA-A2 binding epitope and labelled for 1 hour with 1.85 MBq ^51Chromium. For cytotoxicity assays involving tumour cell-lines, cells were treated with 100 U/ml IFN-γ for 24 hours prior to ^51Chromium labelling. Target cells were washed and allowed to stand in CTL media for 1 hour before washing again. […] HLA-A2 dependence was determined by the addition of anti-HLA-A2 antibody (Serotec, UK) to some wells. […] Supernatants were harvested and analysed using a Top Count™ gamma counter (Can berra-Packard, USA). Specific lysis was determined as follows: […]

For assay [3], the system named is LCL cells. Briefly: 51Chromium cytotoxicity assay of splenocytes from PAP.135 immunised mice against LCL cells. Format: cell-based, human. Particulars: LCL express HLA-A2 but not PAP. The procedure:
as §1
Target cells were pulsed overnight with test peptide or an irrelevant HLA-A2 binding epitope and labelled for 1 hour with 1.85 MBq ^51Chromium. For cytotoxicity assays involving tumour cell-lines, cells were treated with 100 U/ml IFN-γ for 24 hours prior to ^51Chromium labelling. Target cells were washed and allowed to stand in CTL media for 1 hour before washing again. Target cells and effector CTLs were co-incubated at various ratios in 96-well plates in a final volume of 200 μl for 4 hours at 37° C. HLA-A2 dependence was determined by the addition of anti-HLA-A2 antibody (Serotec, UK) to some wells. Maximum and spontaneous release of ^51Chromium was ascertained by incubating target cells with 2% SDS or media alone, respectively. Supernatants were harvested and analysed using a Top Count™ gamma counter (Can berra-Packard, USA). Specific lysis was determined as follows: […]

Assay [4] deals with RMAS-HLA-A2 cells. Kind of assay: 51Chromium cytotoxicity assay of splenocytes from HLA-A2.1/Kb mice against peptide-pulsed RMAS cells. Format: cell-based. Particulars: for % cytoxicity at 50:1 ratio RMAS + irrel.: targets pulsed with irrelevant peptide.
In assay [5] the target is HLA-A2*0201 (Homo sapiens, UniProt P04439, D140Y/D185E/D98H/E176V/E277Q/G131W/G231S/I119V/I121R/I166T/I218V/L300P/L318F/N151K/N90K/P208A/P217A/Q86G/Q94H/R138H/R169H/T345S). Format: cell-based. Conditions: peptide at 100, 10 and 1 μM; compared with positive control influenza M1 peptide; three independent experiments.

Where “and” joins values, the source holds several entries; their conditions need not be identical. Equal values may be shown once. Entries after “also recorded” stand apart in the source; their conditions may differ.

Consider “ILLWQPIPV (listed as Homo sapiens) [PAP.135]”, for which the “IFN-γ release by splenocytes stimulated in vitro” value in assay [1] (PAP.135-immunised mice, versus irrelevant epitope, day 5) is “significantly more IFN-γ; also recorded: significantly upregulated”; in assay [1] (non-immunised (naïve) mice) it was “independent of the peptide used for in vitro stimulation”. Also, in assay [1] (ratio, splenocytes from naïve (non-immunised) mouse), the “IFN-γ release (PAP.135:irrel.)” value was determined as 1.1. The “lysis of LNCaP cells” value in assay [2] is recorded as “dose-dependent lysis; also recorded: highly cytotoxic”. Further, in assay [3], the “lysis of LCL cells” value was “not susceptible to lysis”. In addition, the “inhibition of peptide specific lysis by HLA-A2 blocking antibody” value in assay [4] (PAP.135-pulsed targets, splenocytes from PAP.135 immunised mice, two separate experiments) is reported as “approximately 80%”. For the same sequence, the “lysis of PAP.135 pulsed RMAS-HLA-A2 cells” value in assay [4] (splenocytes from PAP.135 immunised mice) is given as “lysed RMAS-HLA-A2 cells, pulsed with PAP.135 in a dose dependent manner; also recorded: highly cytotoxic”; in assay [4] (splenocytes from non-immunised (naïve) mice stimulated by PAP.135 in vitro), “failed to demonstrate cytotoxicity; also recorded: unable to lyse target cells”. Further, the “% cytoxicity at 50:1 ratio RMAS + irrel.” value in assay [4] (splenocytes from PAP.135-immunised mice, 50:1) is 2% and 7% and 9% and 4% and 1% and 5% and 3%; in assay [4] (splenocytes from naïve (non-immunised) mouse, 50:1), 11%. Moreover, the “% cytoxicity at 50:1 ratio RMAS + PAP.135” value in assay [4] (splenocytes from naïve (non-immunised) mouse stimulated with PAP.135 in vitro, 50:1) stood at 13%. The “binding to HLA-A2 (T2 cells)” value in assay [5] is “strong binding; also recorded: strongest HLA-A2 binding; also recorded: higher affinity to T2 cells”.

Source of the values: patent publication US20100278849A1, “PROSTATIC ACID PHOSPHATASE ANTIGENS” (priority 2004, published 2010).
